Key:
[1] = target: Acetylcholinesterase (Homo sapiens) (UniProt P22303); assay: Percent inhibition against acetylcholinesterase (ACHE) at a concentration of 88 uM
[2] = target: Acetylcholinesterase (Homo sapiens) (UniProt P22303); assay: Percent inhibition against acetylcholinesterase (ACHE) at a concentration of 35 uM
[3] = target: Acetylcholinesterase (Homo sapiens) (UniProt P22303); assay: Percent inhibition against acetylcholinesterase (ACHE) at a concentration of 47 uM

Sequence of Acetylcholinesterase (Homo sapiens) (P22303 whole entry): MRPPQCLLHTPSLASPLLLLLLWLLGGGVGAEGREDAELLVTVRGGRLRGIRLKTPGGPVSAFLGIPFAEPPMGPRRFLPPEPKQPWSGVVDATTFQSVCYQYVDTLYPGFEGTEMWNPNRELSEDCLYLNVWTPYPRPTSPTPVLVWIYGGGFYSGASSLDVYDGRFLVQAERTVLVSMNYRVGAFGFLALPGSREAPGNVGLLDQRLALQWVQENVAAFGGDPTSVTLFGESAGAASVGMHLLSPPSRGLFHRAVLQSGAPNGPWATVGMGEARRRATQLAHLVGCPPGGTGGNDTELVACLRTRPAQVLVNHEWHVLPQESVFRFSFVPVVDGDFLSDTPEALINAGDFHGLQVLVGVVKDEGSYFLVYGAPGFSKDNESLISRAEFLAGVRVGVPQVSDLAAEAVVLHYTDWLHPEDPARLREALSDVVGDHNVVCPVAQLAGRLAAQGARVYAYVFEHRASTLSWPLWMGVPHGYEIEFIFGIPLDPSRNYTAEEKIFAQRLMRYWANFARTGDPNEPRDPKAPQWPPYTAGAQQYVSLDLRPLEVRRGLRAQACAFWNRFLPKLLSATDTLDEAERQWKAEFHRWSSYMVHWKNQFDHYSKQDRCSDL

SMILES: C/C=C1\C2C=C(C)CC1(OC(C)=O)c1ccc(O)nc1C2 (stereo not drawn)
- inhibition [1]: 6.36%

SMILES: C/C=C1\C2C=C(C)CC1(O)c1ccc(O)nc1C2 (stereo not drawn)
- inhibition [2]: 50%

SMILES: C/C=C1\C2C=C(C)CC1(F)c1ccc(O)nc1C2 (stereo not drawn)
- inhibition [3]: 50%
